Laboratory results published in US20160075753A1, “MODULATION OF REGULATORY T CELL FUNCTION VIA PROTEIN KINASE C-eta” (LA JOLLA INSTITUTE FOR ALLERGY AND IMMUNOLOGY, priority 2013, published 2016).

Tested on: interaction between CTLA-4 and PKCη
Experiment: CTLA-4 immunoprecipitation and immunoblotting for PKCη in cotransfected JTAg cells
Type: cell-based, human
Settings: JTAg cells cotransfected with WT Ctla4 and Xpress-tagged WT PKCη; PP2 10 μM for 30 min before anti-CD3 mAbs + B7-Fc stimulation for 5 min; FIG. 12
Procedure: WT Ctla4 were cotransfected with Xpress-tagged WT PKCη into JTAg cells. Cells were treated with vehicle (DMSO), PP2 (10 μM) or PP3 (10 μM) for 30 min prior to stimulation with anti-CD3 mAbs+B7-Fc recombinant protein for 5 min Cell lysates were immunoprecipitated with CTLA-4 mAb and then immunoblotted with the indicated Abs.
Simian virus 40 large T antigen-transfected human leukemic Jurkat T cells (JTAg) and MCC-specific hybridoma T cells were described previously. JTAg cells in logarithmic growth phase were transfected with plasmid DNAs by electroporation and incubated for 48 hours. Transfected cells were stimulated with OKT3 mAb and recombinant B7-Fc in the presence of cross-linking Ab for 5 min. Cell lysis in 1% digitonin lysis buffer (50 mM Tris-HCl, 50 mM NaCl, 5 mM EDTA), immunoprecipitation and Western blotting were carried out as previously described.
To map the important motif within the cytoplasmic tail of CTLA-4 that is used in the interaction with PKCη, the membrane proximal positively charged motif (K188, 191KKR193), the proline-rich motif (P205, 206, 209), and tyrosine residues (Y201 or Y218) were mutated, and the corresponding mutants examined for their ability to associate with PKCη. […] This positively charged motif is highly conserved throughout evolution from fish to primates (FIG. 10).

CC(C)(C)n1nc(-c2ccc(Cl)cc2)c2c(N)ncnc21 [PP2]
interaction between CTLA-4 and PKCη (co-immunoprecipitation): not affected
